Laboratory results as given in patent US10513496B2, “Aminobenzamide derivatives as useful agents for controlling animal parasites” (BAYER INTELLECTUAL PROPERTY GMBH, priority 2007, dated 2019).

Legend:
Assay type in all cases: in vivo
[1] = tested on: Boophilus microplus; assay: Boophilus microplus test (injection); settings: Rhipicephalus microplus; application rate 20 μg/animal; injected into abdomen of adult engorged female ticks; 100% = all eggs infertile
Method: Boophilus microplus—Test (Injection)
(§1) Solvent: Dimethyl Sulfoxide
(§2) To produce a suitable preparation of active compound, 10 mg of active compound are dissolved in 0.5 ml solvent, and the concentrate is diluted with water to the desired concentration.
Five adult engorged female ticks (Boophilus microplus) are injected with compound solution into the abdomen. Ticks are transferred into replica plates and incubated in a climate chamber for a period of time. Egg deposition of fertile eggs is monitored.
After the specified period of time, mortality in % is determined. 100% means that all eggs are infertile; 0% means that all eggs are fertile.

[2] = tested on: Ctenocephalides felis; assay: Ctenocephalides felis test (CTECFE); settings: application rate 100 ppm in cattle blood, adult unfed fleas, 100% = all fleas killed
Method: Ctenocephalides felis—Test (CTECFE)
as §1
To produce a suitable preparation of active compound, 10 mg of active compound are dissolved in 0.5 ml solvent, and the concentrate is diluted with cattle blood to the desired concentration.
Approximately 10 to 15 adult unfed (Ctenocepahlides felis) are placed in flea chambers. The blood chamber, sealed with parafilm on the bottom are filled with cattle blood supplied with compound solution and placed on top of the flea chamber, so that the fleas are able to suck the blood. The blood chamber is heated to 37° C. whereas the flea chamber is kept at room temperature.
After the specified period of time, mortality in % is determined. 100% means that all the fleas have been killed; 0% means that none of the fleas have been killed.

[3] = tested on: Lucilia cuprina larvae; assay: Lucillia cuprina test; settings: application rate 100 ppm, larvae on minced horse meat, 100% = all larvae killed
Method: as §1, §2
Approximately 20-30 (Lucilia cuprina larvae) are transferred into a test tube containing 1 cm^3 of minced horse meat and 0.5 ml aqueous dilution of test compound.
After the specified period of time, mortality in % is determined. 100% means that all the larvae have been killed; 0% means that none of the larvae have been killed.

[4] = tested on: Musca domestica; assay: Musca domestica test; settings: application rate 100 ppm, adults, sponge soaked with sugar and compound solution, 100% = all flies killed
Method: as §1, §2
Prior to the assay, a piece or kitchen sponge is soaked with a mixture of sugar and compound solution and placed into a container. 10 adults (Musca domestica) are placed into the container and closed with a perforated lid.
After the specified period of time, mortality in % is determined. 100% means that all the flies have been killed; 0% means that none of the flies have been killed.

## CCc1cc(SC(F)(F)F)cc(C)c1NC(=O)c1cccc(NC(=O)c2ccccc2F)c1 [Example I-1-186]
[1]
  mortality at 0.02 mg: 80%
[2]
  mortality at 100 ppm: ≥ 80%
[3]
  mortality at 100 ppm: ≥ 80%

## CCc1cc(SC(F)(F)C(F)(F)F)cc(C)c1NC(=O)c1cccc(NC(=O)c2ccccc2F)c1 [Example I-1-187]
[1]
  mortality at 0.02 mg: 80%
[2]
  mortality at 100 ppm: ≥ 80%
[3]
  mortality at 100 ppm: ≥ 80%

## O=C(Nc1c(I)cc(C(F)(F)F)cc1C(F)(F)F)c1cccc(NC(=O)c2ccccc2F)c1 [Example I-1-203]
[1]
  mortality at 0.02 mg: 80%
[2]
  mortality at 100 ppm: ≥ 80%

## O=C(Nc1cccc(C(=O)Nc2c(I)cc(C(F)(F)F)cc2C(F)(F)F)c1)c1ccccc1 [Example I-1-204]
[1]
  mortality at 0.02 mg: 80%
[2]
  mortality at 100 ppm: ≥ 80%
[3]
  mortality at 100 ppm: ≥ 80%

## O=C(Nc1cccc(C(=O)Nc2c(Br)cc(Br)cc2Br)c1)c1ccccc1 [Example I-1-205]
[1]
  mortality at 0.02 mg: 80%

## O=C(Nc1cccc(C(=O)Nc2c(I)cc(C(F)(F)F)cc2C(F)(F)F)c1)c1ccc(Cl)cc1 [Example I-1-206]
[2]
  mortality at 100 ppm: ≥ 80%
[3]
  mortality at 100 ppm: ≥ 80%

## O=C(Nc1c(I)cc(C(F)(F)F)cc1I)c1cccc(NC(=O)c2ccccc2F)c1 [Example I-1-207]
[1]
  mortality at 0.02 mg: 80%
[2]
  mortality at 100 ppm: ≥ 80%
[3]
  mortality at 100 ppm: ≥ 80%

## O=C(Nc1c(I)cc(C(F)(F)F)cc1I)c1cccc(NC(=O)c2cccnc2F)c1 [Example I-1-208]
[1]
  mortality at 0.02 mg: 80%
[2]
  mortality at 100 ppm: ≥ 80%
[3]
  mortality at 100 ppm: ≥ 80%
[4]
  mortality at 100 ppm: ≥ 80%

## O=C(Nc1cccc(C(=O)Nc2c(I)cc(C(F)(F)F)cc2C(F)(F)F)c1)c1ccc(Cl)cc1 [Example I-1-211]
[1]
  mortality at 0.02 mg: 80%

## O=C(Nc1cccc(C(=O)Nc2c(Br)cc(Br)cc2C(F)(F)F)c1)c1ccc(Cl)cc1 [Example I-1-212]
[1]
  mortality at 0.02 mg: 80%
[2]
  mortality at 100 ppm: ≥ 80%

## O=C(Nc1c(Br)cc(S(F)(F)(F)(F)F)cc1Br)c1cccc(NC(=O)c2ccccc2F)c1 [Example I-1-213]
[1]
  mortality at 0.02 mg: 80%
[2]
  mortality at 100 ppm: ≥ 80%
[3]
  mortality at 100 ppm: ≥ 80%
